Results on two compounds are retold here after publication PMC12017303 (Science Advances, 2025).

Converted amounts (≈) assume the structure as drawn.

Data set [1] deals with SARS-CoV-2 WA.1 replicon in Vero ACE2 TMPRSS2. Kind of data set: microbe, parasite or virus in culture. Type of data set: cell-based. Conditions: Severe acute respiratory syndrome coronavirus 2, Vero, read-out: Replicon replication in Vero ACE2 TMPRSS2 EC50: WA.1. A general note: In antiviral work, replicon cells carry a viral genome segment that copies itself.
Data set [2] relates to SARS-CoV-2 BA.2.86.1 replicon in Vero ACE2 TMPRSS2. Nature of the data set: microbe, parasite or virus in culture. Type of data set: cell-based. Conditions: Severe acute respiratory syndrome coronavirus 2, Vero, read-out: Replicon replication in Vero ACE2 TMPRSS2 EC50: BA.2.86.1.
In data set [3] the test system is SARS-CoV-2 WA.1 (icSARS-CoV-2-mNG) in A549-ACE2^h. Kind of data set: microbe, parasite or virus in culture. Type of data set: cell-based. The following applies: Severe acute respiratory syndrome coronavirus 2, read-out: Viral replication in A549-ACE2^h EC50: WA.1.
Data set [4] deals with SARS-CoV-2 XBB.1.5 in A549-ACE2^h. Nature of the data set: microbe, parasite or virus in culture. The following applies: Severe acute respiratory syndrome coronavirus 2, read-out: Viral replication in A549-ACE2^h EC50: XBB.1.5. Type of data set: cell-based.
Data set [5] has as its system SARS-CoV-2 XBB.1.16 in A549-ACE2^h. Kind of data set: microbe, parasite or virus in culture. Conditions: Severe acute respiratory syndrome coronavirus 2, read-out: Viral replication in A549-ACE2^h EC50: XBB.1.16. Type of data set: cell-based.
Data set [6] concerns SARS-CoV-2 EG.5.1 in A549-ACE2^h. Kind of data set: microbe, parasite or virus in culture. Type of data set: cell-based. Conditions: Severe acute respiratory syndrome coronavirus 2, read-out: Viral replication in A549-ACE2^h EC50: EG.5.1.
The conditions of data set [7]: rat, in vivo; cited from earlier work.
For the next data set, the target named is cathepsin L2 (Homo sapiens, UniProt O60911).
The conditions of data set [8]: male, CD-1, mouse, in vivo.
The nature of another data set: in vivo. Conditions: male, CD-1, mouse; for AUC(0-t): AUClast.
Data set [9] is described as follows: in vitro. The following applies: human.
A short description of data set [10]: in vitro. Conditions: PAMPA, pH 7.4. (In general: In PAMPA a lipid-coated filter parts donor from acceptor wells.)
The nature of the next data set: physchem. The following applies: pH 7.4, aqueous buffer, kinetic from dmso stock.
Data set [11] is described as follows: in vitro. Conditions: human, microsomes, pH 7.4.
Data set [12] in a line: in vitro. The following applies: mouse, microsomes, pH 7.4.
Data set [13] can be described thus: in vitro. Conditions: plasma, pH 7.4, PPB.
The test system of the next data set is P-gp (MDR1). Nature of the data set: in vitro. Conditions: dog.

Chain of cathepsin L2 (O60911 114-334): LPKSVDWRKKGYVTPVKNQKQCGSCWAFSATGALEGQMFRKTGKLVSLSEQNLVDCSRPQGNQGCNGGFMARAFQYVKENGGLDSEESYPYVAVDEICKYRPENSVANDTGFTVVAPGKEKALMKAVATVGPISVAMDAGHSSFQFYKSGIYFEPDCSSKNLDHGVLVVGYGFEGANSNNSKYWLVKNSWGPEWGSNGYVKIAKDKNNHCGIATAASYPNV

With `CC(C)(C)[C@H](NC(=O)C(F)(F)F)C(=O)N1C[C@H]2[C@@H]([C@H]1C(=O)N[C@H](C#N)C[C@@H]1CCNC1=O)C2(C)C` [nirmatrelvir, reference compound], the EC50 (in general, the midpoint of the concentration-response curve) in [1] came to 620 nM; in [2], 810 nM; in data set [3], 31 nM; in [4] it was 21 nM; in data set [5], 41 nM; in data set [6] it was 67 nM. For the same compound, in data set [7], the “brain concentrations relative to EC90” value is listed as “only three times the respective EC90 value”.
Regarding `O=c1[nH]c(-c2ccc(Cl)c(Cl)c2)c(-n2nnc3cc(F)c(F)cc32)c(=O)n1-c1cncc2ccccc12` [AVI-4673], the EC50 in [1] turned out to be 940 nM; in data set [2], 280 nM; in [3], 190 nM; in [4] it was 150 nM; in [5], 360 nM; in [6] it was 230 nM. The “cathepsin L2 inhibition, result in words” value on cathepsin L2 is “low-micromolar inhibitor”. In addition, the “Mouse F” value in [8] came to 76. In data set [8] (po, 50 mg/kg), this compound registered an AUClast of 11500 ng·h/mL. Besides, in [8] (po, 50 mg/kg), the “Plasma T½” value is reported as 2.12 h. In addition, the bioavailability (commonly the share of a dose that reaches the circulation, judged against a reference dose that is usually intravenous) in the data set “in vivo” (F) amounted to 71.6%. In addition, in “in vivo” (iv, 10 mg/kg), the MRT inf (in general, a mean duration of stay, worked out from the concentration-time curve) is 1.53 h. The clearance (commonly the rate of elimination divided by the concentration) in “in vivo” (iv, 10 mg/kg) was 51.7 mL/min/kg. In addition, the half-life (in general, how long it takes for the measured level to halve) in “in vivo” (iv, 10 mg/kg) is 131 min; in the data set “in vivo” (po, 50 mg/kg), 127 min; in “in vitro [11]” it was over 120 min; in “in vitro [12]”, over 120 min. In addition, the AUC(0-inf) – broadly, the area under the concentration-time curve extrapolated to infinity – in the data set “in vivo” (iv, 10 mg/kg, AUCINF) is 3220 ng·h/mL; in “in vivo” (po, 50 mg/kg, AUCINF), 11500 ng·h/mL; in the data set “in vivo” (po, 50 mg/kg, AUCinf), 11500 ng·h/mL. The AUC(0-t) (in general, exposure summed from dosing to a finite time, without extrapolation to infinity) is 3100 ng·h/mL in the data set “in vivo” (iv, 10 mg/kg) and 11500 ng·h/mL in the data set “in vivo” (po, 50 mg/kg). The Vd – broadly, the apparent volume that relates the amount in the body to the concentration in plasma or blood – in the data set “in vivo” (iv, 10 mg/kg, Vss) came out at 4.75 L/kg. Besides, the Cmax (usually the highest concentration seen after dosing) worked out at 2420 ng/mL in the data set “in vivo” (po, 50 mg/kg, CMax) and 2420 ng/mL in the data set “in vivo” (po, 50 mg/kg, Cmax). Moreover, the Tmax (in general, the time at which the peak concentration occurs) in “in vivo” (po, 50 mg/kg, TMax) is 4 h; in “in vivo” (po, 50 mg/kg, Tmax), 2 h. This compound also displayed a CC50 in “in vitro [9]” of over 100 µM. For the same compound, the viability (usually a read-out of living cells in per cent, often relative to untreated cells) at 100 µM in “in vitro [9]” was 94.4%. Moreover, in “in vitro [10]”, the Papp (usually a coefficient for how fast a substance crosses the barrier) amounted to 4.99 ×10⁻⁶ cm/s. Further, the concentration in solution in “physchem” (solubility) came to 475 µM (≈ 255 µg/mL). For the same compound, in “in vitro [13]”, the free fraction (fraction unbound) (in general, free concentration divided by total concentration) was 0.005. The Papp B→A (in general, how fast a substance crosses the layer from the basolateral side) in the data set with P-gp (MDR1) (MDCK-MDR1) is 18.4 ×10⁻⁶ cm/s. In addition, in the data set with P-gp (MDR1) (MDCK-MDR1, MDCK AB), the apical-to-basolateral permeability (Papp A→B) – broadly, the apparent permeability from the apical to the basolateral side of a cell layer – is 2.1 ×10⁻⁶ cm/s.
